In patent US12655116B2, “Substituted isophthalic acid diamides” (Bayer Aktiengesellschaft, priority 2020, dated 2026):

Assays:
SETVI [1] = experiment: Post-emergence herbicidal action against SETVI; format: in vivo, Setaria viridis; settings: Setaria viridis, 504 h; for pest or weed control at 5 g/ha: dosage 5 g/ha; for pest or weed control at 20 g/ha: dosage 20 g/ha
Method in brief: (§1)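 Spray, one-leaf stage: WP or EC compound in water, 600–800 l/ha, 0.2% wetting agent. Plants held about 3 weeks in the greenhouse, then visually rated in percent of kill compared with untreated controls.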

AMARE [2] = experiment: Post-emergence herbicidal action against AMARE; format: in vivo, Amaranthus retroflexus; settings: Amaranthus retroflexus, 504 h, 20 g/ha, visual assessment about 3 weeks after treatment, 100% = plants have died, 0% = like control plants
Method in brief: as §1

VIOTR [3] = experiment: Pre-emergence herbicidal action against VIOTR; format: in vivo, Viola tricolor; settings: Viola tricolor, 504 h; for pest or weed control at 20 g/ha: dosage 20 g/ha; for pest or weed control at 80 g/ha: dosage 80 g/ha
Method in brief: (§2)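 Pre-emergence soil-surface spray of formulated compound (WP or EC; 600 to 800 l/ha; 0.2% wetting agent) over seeds sown in sandy loam. After 3 weeks under greenhouse conditions, damage is estimated visually in percent against untreated plants.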

ECHCG [4] = experiment: Post-emergence herbicidal action against ECHCG; format: in vivo, Echinochloa crus-galli; settings: Echinochloa crus-galli, 504 h; for pest or weed control at 20 g/ha: dosage 20 g/ha
Method in brief: as §1

VERPE [5] = experiment: Pre-emergence herbicidal action against VERPE; format: in vivo, Veronica persica; settings: Veronica persica, 504 h, dosage 80 g/ha
Method in brief: as §2

SETVI [6] = experiment: Pre-emergence herbicidal action against SETVI; format: in vivo, Setaria viridis; settings: Setaria viridis, 504 h; for pest or weed control at 80 g/ha: dosage 80 g/ha
Method in brief: as §2

AVEFA [7] = experiment: Pre-emergence herbicidal action against AVEFA; format: in vivo, Avena fatua; settings: Avena fatua, 504 h; 80 g/ha, pre-emergence
Method in brief: as §2

AMARE [8] = experiment: Pre-emergence herbicidal action against AMARE; format: in vivo, Amaranthus retroflexus; settings: Amaranthus retroflexus, 504 h, scored visually after 3 weeks vs untreated controls, 100% = plants have died, 0% = like control plants
Method in brief: as §2

ABUTH [9] = experiment: Post-emergence herbicidal action against ABUTH; format: in vivo, Abutilon theophrasti; settings: Abutilon theophrasti, 504 h, visual assessment about 3 weeks after treatment vs untreated controls; for pest or weed control at 5 g/ha: dosage 5 g/ha; for pest or weed control at 20 g/ha: dosage 20 g/ha
Method in brief: as §1

ECHCG [10] = experiment: Pre-emergence herbicidal action against ECHCG; format: in vivo, Echinochloa crus-galli; settings: Echinochloa crus-galli, 504 h
Method in brief: as §2

AVEFA [11] = experiment: Post-emergence herbicidal action against AVEFA; format: in vivo, Avena fatua; settings: Avena fatua, 504 h, 20 g/ha, visual assessment about 3 weeks after treatment, 100% = plants have died, 0% = like control plants
Method in brief: as §1

MATIN [12] = experiment: Post-emergence herbicidal action against MATIN; format: in vivo, Matricaria inodora; settings: Tripleurospermum inodorum, 504 h; for pest or weed control at 5 g/ha: dosage 5 g/ha; for pest or weed control at 20 g/ha: dosage 20 g/ha
Method in brief: as §1

VERPE [13] = experiment: Post-emergence herbicidal action against VERPE; format: in vivo, Veronica persica; settings: Veronica persica, 504 h
Method in brief: as §1

PHBPU [14] = experiment: Pre-emergence herbicidal action against PHBPU; format: in vivo, Pharbitis purpurea; settings: Ipomoea purpurea, 504 h; for pest or weed control at 80 g/ha: dosage 80 g/ha
Method in brief: as §2

POLCO = experiment: Pre-emergence herbicidal action against POLCO; format: in vivo, Polygonum convolvulus; settings: Fallopia convolvulus, 504 h; for pest or weed control at 80 g/ha: dosage 80 g/ha
Method in brief: as §2

ALOMY = experiment: Pre-emergence herbicidal action against ALOMY; format: in vivo, Alopecurus myosuroides; settings: Alopecurus myosuroides, 504 h; 80 g/ha, pre-emergence, scored visually after 3 weeks vs untreated controls (100% = plants have died, 0% = like control plants)
Method in brief: as §2

PHBPU [15] = experiment: Post-emergence herbicidal action against PHBPU; format: in vivo, Pharbitis purpurea; settings: Ipomoea purpurea, 504 h; for pest or weed control at 20 g/ha: dosage 20 g/ha
Method in brief: as §1

VIOTR [16] = experiment: Post-emergence herbicidal action against VIOTR; format: in vivo, Viola tricolor; settings: Viola tricolor, 504 h
Method in brief: as §1

ABUTH [17] = experiment: Pre-emergence herbicidal action against ABUTH; format: in vivo, Abutilon theophrasti; settings: Abutilon theophrasti, 504 h; for pest or weed control at 80 g/ha: scored visually after 3 weeks vs untreated controls (100% = plants have died, 0% = like control plants)
Method in brief: as §2

DIGSA [18] = experiment: Pre-emergence herbicidal action against DIGSA; format: in vivo, Digitaria sanguinalis; settings: Digitaria sanguinalis, 504 h; for pest or weed control at 80 g/ha: dosage 80 g/ha
Method in brief: as §2

DIGSA [19] = experiment: Post-emergence herbicidal action against DIGSA; format: in vivo, Digitaria sanguinalis; settings: Digitaria sanguinalis, 504 h
Method in brief: as §1

MATIN [20] = experiment: Pre-emergence herbicidal action against MATIN; format: in vivo, Matricaria inodora; settings: Tripleurospermum inodorum, 504 h; for pest or weed control at 20 g/ha: dosage 20 g/ha; for pest or weed control at 80 g/ha: dosage 80 g/ha
Method in brief: as §2

Row | SMILES | pest or weed control at 5 g/ha (SETVI [1]) [%] | pest or weed control at 20 g/ha (SETVI [1]) [%] | pest or weed control at 20 g/ha (AMARE [2]) [%] | pest or weed control at 20 g/ha (VIOTR [3]) [%] | pest or weed control at 80 g/ha (VIOTR [3]) [%] | pest or weed control at 20 g/ha (ECHCG [4]) [%] | pest or weed control at 80 g/ha (VERPE [5]) [%] | pest or weed control at 80 g/ha (SETVI [6]) [%] | pest or weed control at 80 g/ha (AVEFA [7]) [%] | pest or weed control at 20 g/ha (AMARE [8]) [%] | pest or weed control at 80 g/ha (AMARE [8]) [%] | pest or weed control at 5 g/ha (ABUTH [9]) [%] | pest or weed control at 20 g/ha (ABUTH [9]) [%] | pest or weed control at 80 g/ha (ECHCG [10]) [%] | pest or weed control at 20 g/ha (AVEFA [11]) [%] | pest or weed control at 5 g/ha (MATIN [12]) [%] | pest or weed control at 20 g/ha (MATIN [12]) [%] | pest or weed control at 20 g/ha (VERPE [13]) [%] | pest or weed control at 80 g/ha (PHBPU [14]) [%] | pest or weed control at 80 g/ha (POLCO) [%] | also measured
1 | COc1c(C(=O)Nc2nnnn2C)ccc(C(F)(F)F)c1C(=O)NC1CC1 [Example 1-58] | 100 | 100 | 100 | 100 | 100 | 90 | 100 | 100 | 80 | 100 | 100 | 90 | 90 | 100 | 90 | 80 | 90 | 80 | 90 | 90 | pest or weed control at 5 g/ha (ECHCG [4]; dosage 5 g/ha): 90%; pest or weed control at 20 g/ha (SETVI [6]; dosage 20 g/ha): 100%; pest or weed control at 20 g/ha (ECHCG [10]; 20 g/ha): 100%; pest or weed control at 20 g/ha (POLCO; dosage 20 g/ha): 80%; pest or weed control at 80 g/ha (ALOMY): 90%; pest or weed control at 20 g/ha (PHBPU [15]): 90%; pest or weed control at 5 g/ha (VIOTR [16]): 90%; pest or weed control at 20 g/ha (VIOTR [16]): 100%; pest or weed control at 80 g/ha (ABUTH [17]): 80%; pest or weed control at 80 g/ha (DIGSA [18]): 80%; pest or weed control at 5 g/ha (DIGSA [19]): 100%; pest or weed control at 20 g/ha (DIGSA [19]): 100%; pest or weed control at 20 g/ha (MATIN [20]): 90%; pest or weed control at 80 g/ha (MATIN [20]): 100%
2 | CCc1c(C(=O)Nc2nnnn2C)ccc(C(F)F)c1C(=O)NC [Example 1-277] | 90 | 90 | 100 | 100 | 100 | 90 | 90 | 100 | 90 | 100 | 100 | 90 | 90 | 90 | 80 | 90 | 90 | 90 | 90 | 90 | pest or weed control at 5 g/ha (VERPE [13]; 5 g/ha): 80%; pest or weed control at 20 g/ha (PHBPU [14]; dosage 20 g/ha): 80%; pest or weed control at 80 g/ha (ALOMY): 90%; pest or weed control at 5 g/ha (PHBPU [15]; dosage 5 g/ha): 90%; pest or weed control at 20 g/ha (PHBPU [15]): 90%; pest or weed control at 5 g/ha (VIOTR [16]): 80%; pest or weed control at 20 g/ha (VIOTR [16]): 90%; pest or weed control at 80 g/ha (ABUTH [17]): 100%; pest or weed control at 20 g/ha (ABUTH [17]; dosage 20 g/ha, scored visually after 3 weeks vs untreated controls, 100% = plants have died, 0% = like control plants, read-out: Pre-emergence action against ABUTH (herbicidal activity in percent)): 90%; pest or weed control at 20 g/ha (DIGSA [18]; dosage 20 g/ha): 100%; pest or weed control at 80 g/ha (DIGSA [18]): 100%; pest or weed control at 5 g/ha (DIGSA [19]): 90%; pest or weed control at 20 g/ha (DIGSA [19]): 90%; pest or weed control at 20 g/ha (MATIN [20]): 90%; pest or weed control at 80 g/ha (MATIN [20]): 100%
